Test results published in patent US20230200391A1, “ACTIVE COMPOUND COMBINATIONS AND FUNGICIDE COMPOSITIONS COMPRISING THOSE” (priority 2020, published 2023).
Where “and” joins values, the source holds several entries; their conditions need not be identical. Equal entries are not always repeated.

Columns and labels:
Format in all cases: cell-based
[1] = test system: Parastagonospora nodorum; experiment: in vitro-Test with Parastagonospora nodorum
Protocol: (§1) Wells of 96-well microtiter plates are filled with 30 μl of a preparation of test compound or compound combination in methanol+emulsifier alkylaryl-polyglycol-ether. Thereafter, the solvent is evaporated in a hood. At the next step, into each well 200 μl of liquid growth medium is given, that has been amended with an appropriate concentration of spores or mycelium suspension of the test fungus.
(§2) With the aid of a photometer the extinction in all wells is measured at the wavelength of 600 nm.
(§3) The microtiter plates are incubated for 3 to 7 days at 20° C. and 85% relative humidity. After the incubation inhibition of growth is determined photometrically. Efficacy is calculated in relation to the untreated control, 0% efficacy means fungal growth as high as in untreated control while 100% efficacy means no fungal growth is measured.

[2] = test system: Alternaria alternata; experiment: in vitro-Test with Alternaria alternata
Protocol: as §1, §2, §3

[3] = test system: Botrytis cinerea; experiment: in vitro-Test with Botrytis cinerea
Protocol: as §1, §2, §3

[4] = test system: Fusarium culmorum; experiment: in vitro-Test with Fusarium culmorum
Protocol: as §1, §2, §3

[5] = test system: Colletotrichum coccodes; experiment: in vitro-Test with Colletotrichum coccodes
Protocol: as §1, §2, §3

[6] = test system: Cordana musae; experiment: in vitro-Test with Cordana musae
Protocol: as §1, §2, §3

[7] = test system: Diaporthe citri; experiment: in vitro-Test with Diaporthe citri
Protocol: as §1, §2, §3

[8] = test system: Ustilago segetum var. avenae; experiment: in vitro-Test with Ustilago segetum var. avenae
Protocol: as §1, §2, §3

[9] = test system: Cercospora beticola; experiment: in vitro-Test with Cercospora beticola
Protocol: as §1, §2, §3

## O=C(NC1CCC1c1ccc(Cl)cc1Cl)c1cccnc1C(F)(F)F (stereo in doubt) [(2.060), cyclobutrifluram]
[1]; 5 ppm
  efficacy %: 0%
[1]; single compound at 0.04 ppm
  efficacy %: 5%
[1]; single compound at 0.2 ppm
  efficacy %: 13%
[1]; single compound at 5 ppm
  efficacy %: 98%
[2]; 0.04 ppm
  efficacy %: 80%
[2]; 5 ppm
  efficacy %: 88%
[3]; 0.04 ppm
  efficacy %: 49%
[3]; 0.2 ppm
  efficacy %: 77%
[3]; 1 ppm
  efficacy %: 92%
[4]; 0.04 ppm
  efficacy %: 47%
[4]; 5 ppm
  efficacy %: 56%
[5]; 0.04 ppm
  efficacy %: 0%
[5]; 0.2 ppm
  efficacy %: 0%
[5]; 1 ppm
  efficacy %: 0%
[5]; 5 ppm
  efficacy %: 12%
[6]; 0.04 ppm
  efficacy %: 0%
[6]; 0.2 ppm
  efficacy %: 0%

## OC(Cc1ccccc1Cl)(Cn1nc[nH]c1=S)C1(Cl)CC1 (stereo not drawn) [(1.018), prothioconazole]
[1]; 0.02 ppm
  efficacy %: 83%
[1]; 0.1 ppm
  efficacy %: 97%
[1]; 0.5 ppm
  efficacy %: 97%
[1]; single compound at 0.004 ppm
  efficacy %: 2%
[2]; 0.004 ppm
  efficacy %: 26%
[2]; 0.02 ppm
  efficacy %: 13%
[2]; 0.1 ppm
  efficacy %: 37%
[4]; 0.004 ppm
  efficacy %: 3%
[4]; 0.02 ppm
  efficacy %: 0%
[7]; 0.004 ppm
  efficacy %: 14%
[7]; 0.1 ppm
  efficacy %: 98%
[7]; 0.5 ppm
  efficacy %: 99%
[8]; 0.004 ppm
  efficacy %: 45%
[8]; 0.1 ppm
  efficacy %: 99%
[8]; 0.5 ppm
  efficacy %: 99%
[9]; 0.1 ppm
  efficacy %: 100%
[9]; 0.5 ppm
  efficacy %: 96%
[5]; 0.004 ppm
  efficacy %: 0%
[6]; 0.004 ppm
  efficacy %: 3% and 0% and 2%
[6]; 0.5 ppm
  efficacy %: 99%

## O=C(NCCc1ncc(C(F)(F)F)cc1Cl)c1ccccc1C(F)(F)F [(2.005), fluopyram]
[1]; 4 ppm
  efficacy %: 49%
[1]; 20 ppm
  efficacy %: 86%
[2]; 0.16 ppm
  efficacy %: 67%
[2]; 20 ppm
  efficacy %: 89%
[3]; 0.16 ppm
  efficacy %: 48%
[3]; 0.8 ppm
  efficacy %: 77%
[3]; 20 ppm
  efficacy %: 97%
[9]; 0.16 ppm
  efficacy %: 25%
[9]; 0.8 ppm
  efficacy %: 0%
[9]; 4 ppm
  efficacy %: 11%

## Cc1nn(C)c(F)c1C(=O)Nc1ccccc1C(C)CC(C)C (stereo not drawn) [(2.017), penflufen]
[1]; 0.2 ppm
  efficacy %: 0%
[1]; 5 ppm
  efficacy %: 42%
[1]; single compound at 0.04 ppm
  efficacy %: 0%
[1]; single compound at 0.2 ppm
  efficacy %: 4%
[1]; single compound at 1 ppm
  efficacy %: 17%
[1]; single compound at 5 ppm
  efficacy %: 48%
[2]; 0.04 ppm
  efficacy %: 10%
[2]; 1 ppm
  efficacy %: 65%

## CC(C)c1ccc(Cl)cc1CN(C(=O)c1c(C(F)F)nn(C)c1F)C1CC1 [(2.038), isoflucypram]
[2]; 1 ppm
  efficacy %: 76%
[3]; 0.2 ppm
  efficacy %: 74%
[3]; 1 ppm
  efficacy %: 86%
[4]; 0.04 ppm
  efficacy %: 0%
[9]; 0.04 ppm
  efficacy %: 0%

## CO/N=C(/C1=NOCCO1)c1ccccc1Oc1ncnc(Oc2ccccc2Cl)c1F [(3.012), fluoxastrobin]
[2]; 0.4 ppm
  efficacy %: 87%
[4]; 0.4 ppm
  efficacy %: 26%
[4]; 2 ppm
  efficacy %: 34%
[4]; 10 ppm
  efficacy %: 47% and 54%
[5]; 2 ppm
  efficacy %: 85%
[6]; 2 ppm
  efficacy %: 74%
[6]; 10 ppm
  efficacy %: 81%

## CON=C(C(=O)OC)c1ccccc1CON=C(C)c1cccc(C(F)(F)F)c1 [(3.020), trifloxystrobin]
[1]; single compound at 0.008 ppm
  efficacy %: 32%
[1]; single compound at 0.04 ppm
  efficacy %: 73%
[1]; single compound at 1 ppm
  efficacy %: 97%
[2]; 0.008 ppm
  efficacy %: 22%
[2]; 0.04 ppm
  efficacy %: 62%
[3]; 0.008 ppm
  efficacy %: 5%
[3]; 0.04 ppm
  efficacy %: 17%
[3]; 0.2 ppm
  efficacy %: 13%
[4]; 0.008 ppm
  efficacy %: 0%
[4]; 0.04 ppm
  efficacy %: 19%
[5]; 0.008 ppm
  efficacy %: 7%

## Cc1cccc(-n2nnn(C)c2=O)c1COc1ccn(-c2ccc(Cl)cc2)n1 [(3.030), metyltetraprole]
[3]; 0.008 ppm
  efficacy %: 11%
[3]; 0.4 ppm
  efficacy %: 34%
[3]; 2 ppm
  efficacy %: 41%
[3]; 10 ppm
  efficacy %: 81%
[7]; 2 ppm
  efficacy %: 95%
[7]; 10 ppm
  efficacy %: 99%
[8]; 10 ppm
  efficacy %: 34%
[5]; 0.08 ppm
  efficacy %: 25%
[5]; 0.4 ppm
  efficacy %: 73%
[5]; 10 ppm
  efficacy %: 100%
[6]; 0.08 ppm
  efficacy %: 44%
[6]; 0.4 ppm
  efficacy %: 70%
[6]; 2 ppm
  efficacy %: 78%

## COC(=O)C(O)(Cn1cncn1)c1ccc(Oc2ccc(Cl)cc2)cc1Cl (stereo not drawn) [(I-1), Methyl 2-[2-chloro-4-(4-chlorophenoxy)phenyl]-2-hydroxy-3-(1,2,4-triazol-1-yl)propanoate]
[1]; 0.1 ppm
  efficacy %: 87%
[1]; 0.5 ppm
  efficacy %: 98%
[1]; 2.5 ppm
  efficacy %: 96%
[1]; single compound at 0.02 ppm
  efficacy %: 0%
[3]; 0.02 ppm
  efficacy %: 3%
[3]; 0.2 ppm
  efficacy %: 0%
[3]; 0.5 ppm
  efficacy %: 27%
[4]; 0.02 ppm
  efficacy %: 14% and 10% and 4%
[4]; 0.5 ppm
  efficacy %: 0%
[7]; 0.1 ppm
  efficacy %: 0%
[7]; 0.5 ppm
  efficacy %: 96%
[8]; 0.02 ppm
  efficacy %: 9%
[8]; 0.5 ppm
  efficacy %: 96%
[8]; 2.5 ppm
  efficacy %: 98%
[9]; 0.5 ppm
  efficacy %: 100%
[9]; 2.5 ppm
  efficacy %: 100%
[5]; 0.1 ppm
  efficacy %: 0%
[5]; 0.5 ppm
  efficacy %: 32%
[6]; 0.02 ppm
  efficacy %: 0%
[6]; 0.1 ppm
  efficacy %: 5%
[6]; 0.5 ppm
  efficacy %: 15%
[6]; 2.5 ppm
  efficacy %: 99%

## inpyrfluxam [(2.027)]
[7]; 1 ppm
  efficacy %: 86% and 84%
[6]; 1 ppm
  efficacy %: 3%

## mancozeb [(5.013)]
[1]; single compound at 0.16 ppm
  efficacy %: 0%
[2]; 0.16 ppm
  efficacy %: 0%
[2]; 0.8 ppm
  efficacy %: 0% and 1%
[2]; 20 ppm
  efficacy %: 74%
[3]; 0.16 ppm
  efficacy %: 4%
[3]; 0.8 ppm
  efficacy %: 6%
[3]; 4 ppm
  efficacy %: 6%
[4]; 0.16 ppm
  efficacy %: 0%
[4]; 0.8 ppm
  efficacy %: 0%
[4]; 4 ppm
  efficacy %: 0%
[7]; 0.8 ppm
  efficacy %: 0%
[7]; 20 ppm
  efficacy %: 96%
[9]; 20 ppm
  efficacy %: 98% and 100%
[5]; 4 ppm
  efficacy %: 24%
[6]; 0.16 ppm
  efficacy %: 0%
[6]; 0.8 ppm
  efficacy %: 0%
[6]; 4 ppm
  efficacy %: 12%
